Data published in patent US20260207578A1, “COMPOUND BASED ON SULFUR/OXYGEN SUBSTITUTED GLUTARIMIDE-BASED ISOINDOLINONE SKELETON AND USE THEREOF” (Gluetacs Therapeutics (Shanghai) Co., LTD., priority 2022, published 2026).

Assays:
CK1α = target: T1, CK1α (Homo sapiens, UniProt P48729+Q96SW2); test: Western-blot assay, substrate protein in hPBMCs; assay type: cell-based; conditions: hPBMC cells, 24 hours, tested at 50 nM and 500 nM, table does not say which
T1 construct: endogenous in cells; host or cells: human PBMCs (Milecell Biotechnologies)
T1 sequence (P48729 whole entry): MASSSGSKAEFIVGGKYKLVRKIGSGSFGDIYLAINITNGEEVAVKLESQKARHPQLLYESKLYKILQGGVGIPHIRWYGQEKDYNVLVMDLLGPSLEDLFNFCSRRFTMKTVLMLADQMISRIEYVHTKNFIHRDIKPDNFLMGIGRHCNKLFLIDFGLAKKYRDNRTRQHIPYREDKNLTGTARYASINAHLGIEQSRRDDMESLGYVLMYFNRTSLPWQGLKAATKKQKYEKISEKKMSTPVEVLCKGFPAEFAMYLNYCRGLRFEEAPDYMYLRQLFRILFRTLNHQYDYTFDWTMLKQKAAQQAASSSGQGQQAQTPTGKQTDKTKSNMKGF
T1 sequence (Q96SW2 whole entry): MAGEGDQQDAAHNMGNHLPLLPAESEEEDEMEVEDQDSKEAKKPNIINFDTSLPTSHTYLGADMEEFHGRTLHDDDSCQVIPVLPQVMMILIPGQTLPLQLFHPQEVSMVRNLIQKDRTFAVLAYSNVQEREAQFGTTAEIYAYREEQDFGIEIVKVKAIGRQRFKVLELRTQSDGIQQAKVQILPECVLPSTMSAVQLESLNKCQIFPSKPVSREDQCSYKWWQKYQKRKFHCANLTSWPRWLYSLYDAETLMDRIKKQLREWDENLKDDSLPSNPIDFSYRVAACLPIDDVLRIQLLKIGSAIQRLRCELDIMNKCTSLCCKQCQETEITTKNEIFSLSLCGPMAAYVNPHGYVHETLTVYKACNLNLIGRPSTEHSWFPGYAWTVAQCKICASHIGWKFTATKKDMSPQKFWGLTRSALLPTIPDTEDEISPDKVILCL
T1 sequence (Q16531 whole entry partner): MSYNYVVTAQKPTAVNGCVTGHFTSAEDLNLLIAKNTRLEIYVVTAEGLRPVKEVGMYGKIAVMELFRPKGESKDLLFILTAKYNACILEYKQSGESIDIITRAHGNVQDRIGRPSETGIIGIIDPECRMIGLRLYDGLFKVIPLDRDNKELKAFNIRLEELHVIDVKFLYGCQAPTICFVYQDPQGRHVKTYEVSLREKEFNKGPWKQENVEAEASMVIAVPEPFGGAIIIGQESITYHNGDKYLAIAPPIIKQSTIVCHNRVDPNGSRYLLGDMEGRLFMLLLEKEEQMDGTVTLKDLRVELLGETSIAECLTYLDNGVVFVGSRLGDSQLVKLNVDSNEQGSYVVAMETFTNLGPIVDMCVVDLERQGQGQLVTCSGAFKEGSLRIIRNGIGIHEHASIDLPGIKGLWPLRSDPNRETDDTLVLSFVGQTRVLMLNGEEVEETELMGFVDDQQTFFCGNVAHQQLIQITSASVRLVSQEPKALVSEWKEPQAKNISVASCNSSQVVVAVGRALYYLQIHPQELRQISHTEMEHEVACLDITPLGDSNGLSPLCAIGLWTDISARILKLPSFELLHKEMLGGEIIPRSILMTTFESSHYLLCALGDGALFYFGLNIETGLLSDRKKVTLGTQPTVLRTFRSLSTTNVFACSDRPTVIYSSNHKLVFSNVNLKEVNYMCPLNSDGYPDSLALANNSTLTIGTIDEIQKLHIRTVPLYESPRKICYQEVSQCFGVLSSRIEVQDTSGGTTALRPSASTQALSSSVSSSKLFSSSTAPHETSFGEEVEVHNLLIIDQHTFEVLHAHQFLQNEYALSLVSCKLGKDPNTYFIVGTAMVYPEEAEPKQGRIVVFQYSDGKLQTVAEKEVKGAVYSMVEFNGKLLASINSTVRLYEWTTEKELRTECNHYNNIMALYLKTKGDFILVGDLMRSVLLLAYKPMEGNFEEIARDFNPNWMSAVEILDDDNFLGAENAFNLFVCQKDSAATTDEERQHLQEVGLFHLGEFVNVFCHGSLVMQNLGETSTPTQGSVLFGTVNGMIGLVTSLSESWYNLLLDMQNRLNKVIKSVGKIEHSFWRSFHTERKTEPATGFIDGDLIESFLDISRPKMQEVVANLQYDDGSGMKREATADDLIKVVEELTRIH
Method: (§1) The effect of the compounds of the present disclosure on the expression of target proteins in cells was detected using conventional Western blot analysis.
(§2) Human peripheral blood mononuclear cells (hPBMCs) at a density of 1×10^6 cells/mL were thawed according to the PBMC Recovery Protocol (Milecell Biotechnologies Inc, Shanghai).
(§3) After 24 hours of compounds treatment, cells were harvested and lysed in RIPA protein lysate containing phosphatase inhibitors on ice for 30-60 min, followed by centrifugation. The supernatant was aspirated as the extracted total cell protein. The protein concentration of the supernatant was determined using the conventional BCA (Bicinchoninic Acid) assay. The supernatant was then mixed with 4× SDS sample loading buffer, denatured at 95° C. for 5 minutes, and then subjected to SDS-PAGE electrophoresis on a polyacrylamide gel. Proteins were then transferred to a nitrocellulose (NC) membrane, blocked at room temperature for 1-2 h, and processed for antibody incubation and detection according to the manufacturer's instructions (Cell Signaling Technology).
(§4) Half-Maximal Degradation Concentration value (the drug concentration required for degrading proteins by 50%, abbreviated as DC50) reads method: comparing the grayscale values of Western blot bands from drug-treated samples with those from blank DMSO-treated controls, and identifying the drug concentration range at which the grayscale value is half that of the DMSO-treated control bands.
(§5) DC50 values can be calculated using ImageJ software to measure grayscale values of Western blot bands from drug-treated samples. The concentration-response curve is fitted to estimate the drug concentration corresponding to half the grayscale value.
(§6) Target protein remaining (%) refers to the percentage of target protein remaining in hPBMC cells after treatment with protein degrader compounds.
(§7) Calculation method for protein remaining (%): Use ImageJ software to measure grayscale values of Western blot bands from drug (protein degrader)-treated samples. The grayscale value of drug-treated bands is divided by that of internal control protein bands, and the resulting quotient is normalized to obtain the relative percentage of remaining target protein after protein degrader treatment.
(§8) Target protein degradation rate (%)=100%−target protein remaining (%).

IKZF2 = target: T2, IKZF2 (Homo sapiens, UniProt Q96SW2+Q9UKS7); test: Western-blot assay, substrate protein in hPBMCs; assay type: cell-based; conditions: hPBMC cells, 24 hours, tested at 50 nM and 500 nM, table does not say which
T2 construct: endogenous in cells; host or cells: human PBMCs (Milecell Biotechnologies)
T2 sequence (Q9UKS7 whole entry): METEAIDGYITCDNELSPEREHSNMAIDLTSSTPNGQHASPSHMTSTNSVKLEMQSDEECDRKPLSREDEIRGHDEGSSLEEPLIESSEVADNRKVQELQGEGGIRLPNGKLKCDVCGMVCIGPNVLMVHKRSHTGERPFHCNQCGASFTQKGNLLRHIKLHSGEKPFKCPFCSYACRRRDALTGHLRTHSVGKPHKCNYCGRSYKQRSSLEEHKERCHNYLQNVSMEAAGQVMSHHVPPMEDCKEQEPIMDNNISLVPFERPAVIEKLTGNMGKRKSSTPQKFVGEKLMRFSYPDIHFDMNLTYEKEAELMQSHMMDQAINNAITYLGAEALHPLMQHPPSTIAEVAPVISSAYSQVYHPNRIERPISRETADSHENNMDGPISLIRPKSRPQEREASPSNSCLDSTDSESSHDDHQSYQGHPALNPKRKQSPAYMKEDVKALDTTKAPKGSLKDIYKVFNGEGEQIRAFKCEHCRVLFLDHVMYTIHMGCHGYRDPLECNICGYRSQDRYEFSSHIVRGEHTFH
T2 sequence (Q96SW2 whole entry): as the sequence (Q96SW2 whole entry) above
T2 sequence (Q16531 whole entry partner): as the sequence (Q16531 whole entry partner) above
Method: as §1, §2, §3, §4, §5, §6, §7, §8

[1] = target: T3, human Cereblon WT GST-tagged protein (Homo sapiens, UniProt Q96SW2); test: CRBN-binding affinity, HTRF (CEREBLON BINDING kit); conditions: displacement of Thalidomide-Re reagent, 3 hours at room temperature
T3 construct: purchased CISBIO 64BDCRBNPEH
T3 sequence (Q96SW2 whole entry): as the sequence (Q96SW2 whole entry) above
Method: The CEREBLON BINDING kits (specification: 10,000 tests; product number: Catalog #64BDCRBNPEH; CISBIO company) was used to determine the CRBN binding ability of the compounds to be tested through a HTRF method (homogeneous time-resolved fluorescence). The specific methods are as follows: • 1. […] Then, 2.5 μL of human Cereblon WT GST-tagged protein solution was added to each well. Finally, 5 μL of the thoroughly mixed Thalidomide-Re reagent and GST Eu antibody working solution were added to each of the aforementioned wells. […] The blank control wells were sequentially added with 2.5 μL of diluent #9 (1×) solution, 2.5 μL of PROTAC binding buffer, and 5 μL of thoroughly mixed Thalidomide-Re reagent and GST Eu antibody working solution. • 4.
OD 620 nmcompound is the absorbance value of each well of the compounds to be tested of the present disclosure at an emission wavelength of 620 nm. […] OD 620 nmcontrol is the absorbance value of the blank control well at an emission wavelength of 620 nm. […] OD 620 nmStd0 is the absorbance value of the solvent control well at an emission wavelength of 620 nm.

Wee1 = target: T4, Wee1 (Homo sapiens, UniProt P30291+Q96SW2); test: Western-blot assay, substrate protein in hPBMCs; assay type: cell-based; conditions: hPBMC cells, 24 hours, tested at 50 nM and 500 nM, table does not say which
T4 construct: endogenous in cells; host or cells: human PBMCs (Milecell Biotechnologies)
T4 sequence (P30291 whole entry): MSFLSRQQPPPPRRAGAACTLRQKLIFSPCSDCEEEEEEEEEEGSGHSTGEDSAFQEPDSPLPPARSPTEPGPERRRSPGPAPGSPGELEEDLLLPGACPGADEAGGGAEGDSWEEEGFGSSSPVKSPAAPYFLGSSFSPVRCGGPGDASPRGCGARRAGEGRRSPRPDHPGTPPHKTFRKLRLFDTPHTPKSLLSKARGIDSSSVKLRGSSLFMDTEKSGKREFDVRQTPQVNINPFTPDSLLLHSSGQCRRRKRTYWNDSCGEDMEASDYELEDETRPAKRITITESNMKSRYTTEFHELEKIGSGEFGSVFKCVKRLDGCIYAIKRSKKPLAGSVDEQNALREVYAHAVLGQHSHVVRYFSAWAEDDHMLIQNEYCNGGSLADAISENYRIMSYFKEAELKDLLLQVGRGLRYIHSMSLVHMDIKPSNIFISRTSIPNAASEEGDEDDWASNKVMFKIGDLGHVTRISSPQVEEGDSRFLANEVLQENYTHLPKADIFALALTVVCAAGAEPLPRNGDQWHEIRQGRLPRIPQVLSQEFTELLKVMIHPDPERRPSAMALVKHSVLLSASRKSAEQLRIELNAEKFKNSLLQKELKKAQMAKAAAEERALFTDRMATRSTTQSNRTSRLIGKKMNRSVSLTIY
T4 sequence (Q96SW2 whole entry): as the sequence (Q96SW2 whole entry) above
T4 sequence (Q16531 whole entry partner): as the sequence (Q16531 whole entry partner) above
Method: as §1, §2, §3, §4, §5, §6, §7, §8

GSPT1 = target: T5, GSPT1 (Homo sapiens, UniProt P15170+Q96SW2); test: Western-blot assay, substrate protein in hPBMCs; assay type: cell-based; conditions: hPBMC cells, 24 hours, tested at 50 nM and 500 nM, table does not say which
T5 construct: endogenous in cells; host or cells: human PBMCs (Milecell Biotechnologies)
T5 sequence (P15170 whole entry): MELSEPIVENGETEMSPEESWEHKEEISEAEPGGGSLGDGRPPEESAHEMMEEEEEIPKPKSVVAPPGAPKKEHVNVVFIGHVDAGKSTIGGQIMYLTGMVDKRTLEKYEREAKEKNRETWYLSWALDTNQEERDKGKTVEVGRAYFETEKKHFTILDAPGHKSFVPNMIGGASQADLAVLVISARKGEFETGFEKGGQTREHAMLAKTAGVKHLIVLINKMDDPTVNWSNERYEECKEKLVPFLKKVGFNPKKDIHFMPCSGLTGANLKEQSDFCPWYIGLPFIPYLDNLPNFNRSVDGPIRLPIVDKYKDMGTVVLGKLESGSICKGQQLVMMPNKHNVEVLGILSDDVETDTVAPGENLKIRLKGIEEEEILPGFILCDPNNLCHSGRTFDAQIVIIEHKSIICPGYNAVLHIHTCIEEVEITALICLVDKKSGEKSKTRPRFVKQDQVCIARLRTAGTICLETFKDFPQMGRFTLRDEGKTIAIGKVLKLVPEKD
T5 sequence (Q96SW2 whole entry): as the sequence (Q96SW2 whole entry) above
T5 sequence (Q16531 whole entry partner): as the sequence (Q16531 whole entry partner) above
Method: as §1, §2, §3, §4, §5, §6, §7, §8

SMILES	substrate protein remaining % (CK1α)	substrate protein remaining % (IKZF2)	IC50 [1] [nM]	substrate protein remaining % (Wee1)	substrate protein remaining % (GSPT1)
CC1(C)CCC(CN2CC(Oc3cccc4c3C(=O)N(C3CCC(=O)NC3=O)C4)C2)=C(c2ccc(Cl)cc2)C1 (centres unmarked) [GT-07063]	A (0%≤ substrate protein remaining % ≤80%)	–	–	–	–
O=C1CCC(N2Cc3cc(OC4CC5(CCNCC5)C4)ccc3C2=O)C(=O)N1 (centres unmarked) [GT-07005, 3-(5-((7-azaspiro[3.5]nonan-2-yl)oxy)-1-oxoisoindolin-2-yl)piperidine-2,6-dione]	–	A (0%≤ substrate protein remaining % ≤80%)	1000 to 1900	–	–
O=C1CCC(N2Cc3cc(SC4CN(C(c5ccccc5)c5ccccc5)C4)ccc3C2=O)C(=O)N1 (centres unmarked) [GT-06138, 3-(5-((1-benzhydrylazetidin-3-yl)thio)-1-oxoisoindolin-2-yl)piperidine-2,6-dione]	–	–	500 to 1000	A (0%≤ substrate protein remaining % ≤80%)	A (0%≤ substrate protein remaining % ≤80%)
O=C1CCC(N2Cc3cc(OC4CCN(C(=O)c5ccccc5-c5ccc(Cl)cc5)C4)ccc3C2=O)C(=O)N1 (centres unmarked) [GT-06818, 3-(5-((1-(4′-chloro-[1,1′-biphenyl]-2-carbonyl)pyrrolidin-3-yl)oxy)-1-oxoisoindolin-2-yl)piperidine-2,6-dione]	A (0%≤ substrate protein remaining % ≤80%)	–	< 500	A (0%≤ substrate protein remaining % ≤80%)	A (0%≤ substrate protein remaining % ≤80%)
O=C1CCC(N2Cc3cc(OC4CN(Cc5cccc(-c6ccc(Cl)cc6)c5)C4)ccc3C2=O)C(=O)N1 (centres unmarked) [GT-06227, 3-(5-((1-((4′-chloro-[1,1′-biphenyl]-3-yl)methyl)azetidin-3-yl)oxy)-1-oxoisoindolin-2-yl)piperidine-2,6-dione]	A (0%≤ substrate protein remaining % ≤80%)	–	–	A (0%≤ substrate protein remaining % ≤80%)	A (0%≤ substrate protein remaining % ≤80%)
O=C1CCC(N2Cc3cc(OC4CN(C(c5ccc(F)cc5)c5ccc(F)cc5)C4)ccc3C2=O)C(=O)N1 (centres unmarked) [GT-06519, 3-(5-((1-(bis(4-fluorophenyl)methyl)azetidin-3-yl)oxy)-1-oxoisoindolin-2-yl)piperidine-2,6-dione]	A (0%≤ substrate protein remaining % ≤80%)	–	500 to 1000	–	–
O=C1CCC(N2Cc3cc(SC4CCCNCC4)ccc3C2=O)C(=O)N1 (centres unmarked) [GT-06995, 3-(5-(azepan-4-ylthio)-1-oxoisoindolin-2-yl)piperidine-2,6-dione]	A (0%≤ substrate protein remaining % ≤80%)	–	1000 to 1900	–	–
O=C1CCC(N2Cc3cc(OC4CCN(Cc5cccc(-c6ccc(Cl)cc6)c5)CC4)ccc3C2=O)C(=O)N1 (centres unmarked) [GT-06228, 3-(5-((1-((4′-chloro-[1,1′-biphenyl]-3-yl)methyl)piperidin-4-yl)oxy)-1-oxoisoindolin-2-yl)piperidine-2,6-dione]	A (0%≤ substrate protein remaining % ≤80%)	–	–	A (0%≤ substrate protein remaining % ≤80%)	A (0%≤ substrate protein remaining % ≤80%)
CC1(C)CCC(CN2CCC(Oc3ccc4c(c3)CN(C3CCC(=O)NC3=O)C4=O)CC2)=C(c2ccc(Cl)cc2)C1 (centres unmarked) [GT-07061, 3-(5-((1-((4′-chloro-5,5-dimethyl-3,4,5,6-tetrahydro-[1,1′-biphenyl]-2-yl)methyl)piperidin-4-yl)oxy)-1-oxoisoindolin-2-yl)piperidine-2,6-dione]	A (0%≤ substrate protein remaining % ≤80%)	–	–	–	–
CC1(C)CCC(C(=O)N2CCC(Sc3ccc4c(c3)CN(C3CCC(=O)NC3=O)C4=O)CC2)=C(c2ccc(Cl)cc2)C1 (centres unmarked) [GT-06140, 3-(5-((1-(4′-chloro-5,5-dimethyl-3,4,5,6-tetrahydro-[1,1′-biphenyl]-2-carbonyl)piperidin-4-yl)thio)-1-oxoisoindolin-2-yl)piperidine-2,6-dione]	–	–	500 to 1000	A (0%≤ substrate protein remaining % ≤80%)	–
COC1(C)CCC(c2ccc(Cl)cc2)=C(CN2CC(Oc3ccc4c(c3)CN(C3CCC(=O)NC3=O)C4=O)C2)C1 (centres unmarked) [GT-07065, 3-(5-((1-((4′-chloro-4-methoxy-4-methyl-3,4,5,6-tetrahydro-[1,1′-biphenyl]-2-yl)methyl)azetidin-3-yl)oxy)-1-oxoisoindolin-2-yl)piperidine-2,6-dione]	A (0%≤ substrate protein remaining % ≤80%)	–	–	–	–
O=C1CCC(N2Cc3cc(OC4CC5CN(Cc6ccccc6-c6ccc(Cl)cc6)CC5C4)ccc3C2=O)C(=O)N1 (centres unmarked) [GT-06953, 3-(5-((2-((4′-chloro-[1,1′-biphenyl]-2-yl)methyl)octahydrocyclopenta [c]pyrrol-5-yl)oxy)-1-oxoisoindolin-2-yl)piperidine-2,6-dione]	A (0%≤ substrate protein remaining % ≤80%)	–	< 500	A (0%≤ substrate protein remaining % ≤80%)	–
CC1(C)CCC(C(=O)N2C[C@H]3CC(Oc4ccc5c(c4)CN(C4CCC(=O)NC4=O)C5=O)C[C@H]3C2)=C(c2ccc(Cl)cc2)C1 (stereo partly drawn) [GT-07019, 3-(5-(((3aR,6aS)-2-(4′-chloro-5,5-dimethyl-3,4,5,6-tetrahydro-[1,1′-biphenyl]-2-carbonyl)octahydro-cyclopenta[c]pyrrol-5-yl)oxy)-1-oxoisoindolin-2-yl)piperidine-2,6-dione]	–	–	< 500	A (0%≤ substrate protein remaining % ≤80%)	–
CC1(C)CCC(CN2CCC(Oc3ccc4c(c3)CN(C3CCC(=O)NC3=O)C4=O)CC2)=C(c2ccc(F)cc2)C1 (centres unmarked) [GT-07062, 3-(5-((1-((4′-fluoro-5,5-dimethyl-3,4,5,6-tetrahydro-[1,1′-biphenyl]-2-yl)methyl)piperidin-4-yl)oxy)-1-oxoisoindolin-2-yl)piperidine-2,6-dione]	A (0%≤ substrate protein remaining % ≤80%)	–	–	–	–
CC1(C)CCC(C(=O)N2CCC3(CC2)CC(Oc2ccc4c(c2)CN(C2CCC(=O)NC2=O)C4=O)C3)=C(c2ccc(Cl)cc2)C1 (centres unmarked) [GT-07020, 3-(5-((7-(4′-chloro-5,5-dimethyl-3,4,5,6-tetrahydro-[1,1′-biphenyl]-2-carbonyl)-7-azaspiro[3.5]nonan-2-yl)oxy)-1-oxoisoindolin-2-yl)piperidine-2,6-dione]	–	–	500 to 1000	A (0%≤ substrate protein remaining % ≤80%)	A (0%≤ substrate protein remaining % ≤80%)
COC1(C)CCC(c2ccc(Cl)cc2)=C(CN2CC(Sc3ccc4c(c3)CN(C3CCC(=O)NC3=O)C4=O)C2)C1 (centres unmarked) [GT-07064, 3-(5-((1-((4′-chloro-4-methoxy-4-methyl-3,4,5,6-tetrahydro-[1,1′-biphenyl]-2-yl)methyl)azetidin-3-yl)thio)-1-oxoisoindolin-2-yl)piperidine-2,6-dione]	A (0%≤ substrate protein remaining % ≤80%)	–	–	–	–
O=C1CCC(N2Cc3cc(OC4CN(Cc5ccc(-c6ccc(Cl)cc6)cc5)C4)ccc3C2=O)C(=O)N1 (centres unmarked) [GT-06230, 3-(5-((1-((4′-chloro-[1,1′-biphenyl]-4-yl)methyl)azetidin-3-yl)oxy)-1-oxoisoindolin-2-yl)piperidine-2,6-dione]	A (0%≤ substrate protein remaining % ≤80%)	–	500 to 1000	A (0%≤ substrate protein remaining % ≤80%)	A (0%≤ substrate protein remaining % ≤80%)
